Source: the kinase profiling compilation of Christmann-Franck et al. (2016)
Values joined by “and” are separate entries in the source; they are usually repeats but may differ in a detail not shown here. Equal values may be shown once.

Tests used:
Test in all cases: radiometric filter-binding kinase assay, Kinase HotSpot
Details in all cases: compound 0.5 µM; ATP 10 µM
JAK2 JH1 JH2 (human) = JAK2 JH1 JH2 (human) (UniProt O60674)
LYN (human) = LYN (human) (UniProt P07948)
CDC42BPB (human) = CDC42BPB (human) (UniProt Q9Y5S2)
AURKC (human) = AURKC (human) (UniProt Q9UQB9)
RPS6KB2 (human) = RPS6KB2 (human) (UniProt Q9UBS0)
PRKG1 (human) = PRKG1 (human) (UniProt Q13976)
HIPK2 (human) = HIPK2 (human) (UniProt Q9H2X6)
CAMK2G (human) = CAMK2G (human) (UniProt Q13555)
PLK1 (human) = PLK1 (human) (UniProt P53350)
JAK3 JH1 JH2 (human) = JAK3 JH1 JH2 (human) (UniProt P52333)
CSNK2A1 (human) = CSNK2A1 (human) (UniProt P68400)
SGK2 (human) = SGK2 (human) (UniProt Q9HBY8)
MST4 (human) = MST4 (human) (UniProt Q9P289)
MYLK (human) = MYLK (human) (UniProt Q15746)
GRK7 (human) = GRK7 (human) (UniProt Q8WTQ7)
TBK1 (human) = TBK1 (human) (UniProt Q9UHD2)
PHKG2 (human) = PHKG2 (human) (UniProt P15735)
DYRK2 (human) = DYRK2 (human) (UniProt Q92630)
TXK (human) = TXK (human) (UniProt P42681)
SRPK2 (human) = SRPK2 (human) (UniProt P78362)
ABL1 (human) = ABL1 (human) (UniProt P00519)
TAOK1 (human) = TAOK1 (human) (UniProt Q7L7X3)
DYRK1B (human) = DYRK1B (human) (UniProt Q9Y463)
CSF1R (human) = CSF1R (human) (UniProt P07333)
EPHA1 (human) = EPHA1 (human) (UniProt P21709)
DAPK1 (human) = DAPK1 (human) (UniProt P53355)
PRKD3 (human) = PRKD3 (human) (UniProt O94806)
PRKCA (human) = PRKCA (human) (UniProt P17252)
RIPK2 (human) = RIPK2 (human) (UniProt O43353)
CSNK1D (human) = CSNK1D (human) (UniProt P48730)
NEK7 (human) = NEK7 (human) (UniProt Q8TDX7)
STK10 (human) = STK10 (human) (UniProt O94804)
STK4 (human) = STK4 (human) (UniProt Q13043)
ROS1 (human) = ROS1 (human) (UniProt P08922)
FLT1 (human) = FLT1 (human) (UniProt P17948)
RAF1 (human) = RAF1 (human) (UniProt P04049)
ACVRL1 (human) = ACVRL1 (human) (UniProt P37023)
IRAK4 (human) = IRAK4 (human) (UniProt Q9NWZ3)
DDR2 (human) = DDR2 (human) (UniProt Q16832)
STK17A (human) = STK17A (human) (UniProt Q9UEE5)
MARK2 (human) = MARK2 (human) (UniProt Q7KZI7)
CDK9 CCNK (human) = CDK9 CCNK (human) (UniProt O75909+P50750)

Sequence of FLT1 (human) (P17948 whole entry, looked up): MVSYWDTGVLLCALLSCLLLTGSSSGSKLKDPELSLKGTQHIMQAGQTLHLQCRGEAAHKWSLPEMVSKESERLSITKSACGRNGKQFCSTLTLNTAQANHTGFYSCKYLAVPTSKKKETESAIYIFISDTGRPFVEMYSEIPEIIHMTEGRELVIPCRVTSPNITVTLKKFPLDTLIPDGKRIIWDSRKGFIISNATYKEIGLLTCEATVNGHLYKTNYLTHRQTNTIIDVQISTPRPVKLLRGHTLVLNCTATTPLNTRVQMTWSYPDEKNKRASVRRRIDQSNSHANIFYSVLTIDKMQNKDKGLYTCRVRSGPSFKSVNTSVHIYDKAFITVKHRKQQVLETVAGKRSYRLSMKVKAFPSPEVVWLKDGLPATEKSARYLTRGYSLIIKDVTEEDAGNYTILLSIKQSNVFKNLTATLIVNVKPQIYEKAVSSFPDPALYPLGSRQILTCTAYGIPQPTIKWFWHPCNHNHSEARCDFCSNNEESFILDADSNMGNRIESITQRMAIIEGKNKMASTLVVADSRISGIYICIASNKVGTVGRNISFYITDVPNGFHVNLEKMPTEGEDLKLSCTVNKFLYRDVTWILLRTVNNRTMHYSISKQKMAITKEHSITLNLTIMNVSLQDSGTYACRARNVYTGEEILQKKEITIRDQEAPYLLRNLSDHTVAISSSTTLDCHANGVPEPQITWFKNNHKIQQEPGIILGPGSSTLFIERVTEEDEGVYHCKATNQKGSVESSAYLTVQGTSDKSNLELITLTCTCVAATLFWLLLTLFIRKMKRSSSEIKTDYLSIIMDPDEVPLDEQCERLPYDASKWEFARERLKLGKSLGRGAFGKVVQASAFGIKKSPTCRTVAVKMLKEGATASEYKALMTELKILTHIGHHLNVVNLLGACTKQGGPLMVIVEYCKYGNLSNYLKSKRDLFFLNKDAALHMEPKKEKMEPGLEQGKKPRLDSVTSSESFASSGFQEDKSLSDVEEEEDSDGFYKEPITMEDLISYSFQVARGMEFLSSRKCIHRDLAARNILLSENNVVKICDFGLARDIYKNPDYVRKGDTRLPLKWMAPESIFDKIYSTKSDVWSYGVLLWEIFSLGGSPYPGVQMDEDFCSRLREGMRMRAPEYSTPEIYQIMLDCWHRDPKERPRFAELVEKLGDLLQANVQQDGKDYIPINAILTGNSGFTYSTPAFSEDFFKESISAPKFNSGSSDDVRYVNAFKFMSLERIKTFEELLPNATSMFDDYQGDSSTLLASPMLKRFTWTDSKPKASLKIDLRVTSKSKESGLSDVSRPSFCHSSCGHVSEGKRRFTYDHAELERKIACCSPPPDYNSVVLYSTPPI
Sequence of RIPK2 (human) (O43353 whole entry, looked up): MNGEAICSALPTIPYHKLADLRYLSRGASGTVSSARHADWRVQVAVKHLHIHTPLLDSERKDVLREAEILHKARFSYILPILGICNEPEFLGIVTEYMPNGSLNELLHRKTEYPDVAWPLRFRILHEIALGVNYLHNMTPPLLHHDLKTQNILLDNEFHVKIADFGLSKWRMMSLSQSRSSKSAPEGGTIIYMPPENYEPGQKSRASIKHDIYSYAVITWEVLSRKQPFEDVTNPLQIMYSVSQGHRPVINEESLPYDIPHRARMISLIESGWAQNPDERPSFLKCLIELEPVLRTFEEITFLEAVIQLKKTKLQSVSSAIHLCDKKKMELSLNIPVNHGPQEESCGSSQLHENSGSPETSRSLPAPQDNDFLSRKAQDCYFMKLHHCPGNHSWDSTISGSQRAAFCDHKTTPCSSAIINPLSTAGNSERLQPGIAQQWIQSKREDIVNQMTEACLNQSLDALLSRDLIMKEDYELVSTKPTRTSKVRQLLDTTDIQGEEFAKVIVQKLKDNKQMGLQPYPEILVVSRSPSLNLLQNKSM
Sequence of PLK1 (human) (P53350 whole entry, looked up): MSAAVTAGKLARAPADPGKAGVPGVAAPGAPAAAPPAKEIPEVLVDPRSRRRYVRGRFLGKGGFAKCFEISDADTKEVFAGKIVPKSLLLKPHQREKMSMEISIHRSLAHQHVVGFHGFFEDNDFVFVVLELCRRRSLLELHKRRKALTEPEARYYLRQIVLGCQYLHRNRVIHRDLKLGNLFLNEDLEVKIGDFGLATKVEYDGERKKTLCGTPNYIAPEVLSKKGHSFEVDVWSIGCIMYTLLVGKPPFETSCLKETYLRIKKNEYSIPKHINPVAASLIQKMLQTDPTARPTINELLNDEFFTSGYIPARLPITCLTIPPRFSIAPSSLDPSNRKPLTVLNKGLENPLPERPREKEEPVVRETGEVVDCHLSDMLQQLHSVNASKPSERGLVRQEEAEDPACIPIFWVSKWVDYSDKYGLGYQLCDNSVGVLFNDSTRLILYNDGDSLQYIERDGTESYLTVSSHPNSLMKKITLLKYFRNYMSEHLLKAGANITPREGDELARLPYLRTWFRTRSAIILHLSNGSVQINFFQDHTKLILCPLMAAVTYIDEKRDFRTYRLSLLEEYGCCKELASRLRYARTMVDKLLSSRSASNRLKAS
Sequence of CSNK1D (human) (P48730 whole entry, looked up): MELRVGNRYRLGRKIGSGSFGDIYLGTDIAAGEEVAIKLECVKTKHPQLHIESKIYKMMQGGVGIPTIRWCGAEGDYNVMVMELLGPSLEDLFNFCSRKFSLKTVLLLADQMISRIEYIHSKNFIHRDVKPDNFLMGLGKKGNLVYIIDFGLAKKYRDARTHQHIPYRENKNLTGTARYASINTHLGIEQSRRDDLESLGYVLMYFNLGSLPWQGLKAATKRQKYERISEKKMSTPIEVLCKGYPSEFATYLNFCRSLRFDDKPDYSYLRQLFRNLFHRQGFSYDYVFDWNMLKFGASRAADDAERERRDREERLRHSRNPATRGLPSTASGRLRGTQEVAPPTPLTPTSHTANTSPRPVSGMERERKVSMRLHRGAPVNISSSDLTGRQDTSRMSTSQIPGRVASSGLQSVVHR
Sequence of TBK1 (human) (Q9UHD2 whole entry, looked up): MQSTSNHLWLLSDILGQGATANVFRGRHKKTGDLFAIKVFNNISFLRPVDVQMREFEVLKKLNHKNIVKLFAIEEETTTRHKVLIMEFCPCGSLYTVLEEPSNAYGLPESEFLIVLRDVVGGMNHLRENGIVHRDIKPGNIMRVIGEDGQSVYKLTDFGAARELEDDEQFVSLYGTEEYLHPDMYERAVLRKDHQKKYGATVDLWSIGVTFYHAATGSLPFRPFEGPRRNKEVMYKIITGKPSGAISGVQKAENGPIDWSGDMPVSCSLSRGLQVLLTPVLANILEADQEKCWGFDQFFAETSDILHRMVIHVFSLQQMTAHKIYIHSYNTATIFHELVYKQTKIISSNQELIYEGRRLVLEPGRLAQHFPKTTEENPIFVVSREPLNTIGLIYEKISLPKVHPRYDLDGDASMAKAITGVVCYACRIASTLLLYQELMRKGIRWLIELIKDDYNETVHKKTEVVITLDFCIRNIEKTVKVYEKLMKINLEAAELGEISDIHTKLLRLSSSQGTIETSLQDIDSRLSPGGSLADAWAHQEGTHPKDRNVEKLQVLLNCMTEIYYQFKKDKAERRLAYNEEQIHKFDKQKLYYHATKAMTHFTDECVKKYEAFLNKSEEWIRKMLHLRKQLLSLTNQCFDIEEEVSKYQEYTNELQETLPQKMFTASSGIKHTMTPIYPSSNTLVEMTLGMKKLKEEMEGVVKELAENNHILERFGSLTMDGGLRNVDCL
Sequence of HIPK2 (human) (Q9H2X6 whole entry, looked up): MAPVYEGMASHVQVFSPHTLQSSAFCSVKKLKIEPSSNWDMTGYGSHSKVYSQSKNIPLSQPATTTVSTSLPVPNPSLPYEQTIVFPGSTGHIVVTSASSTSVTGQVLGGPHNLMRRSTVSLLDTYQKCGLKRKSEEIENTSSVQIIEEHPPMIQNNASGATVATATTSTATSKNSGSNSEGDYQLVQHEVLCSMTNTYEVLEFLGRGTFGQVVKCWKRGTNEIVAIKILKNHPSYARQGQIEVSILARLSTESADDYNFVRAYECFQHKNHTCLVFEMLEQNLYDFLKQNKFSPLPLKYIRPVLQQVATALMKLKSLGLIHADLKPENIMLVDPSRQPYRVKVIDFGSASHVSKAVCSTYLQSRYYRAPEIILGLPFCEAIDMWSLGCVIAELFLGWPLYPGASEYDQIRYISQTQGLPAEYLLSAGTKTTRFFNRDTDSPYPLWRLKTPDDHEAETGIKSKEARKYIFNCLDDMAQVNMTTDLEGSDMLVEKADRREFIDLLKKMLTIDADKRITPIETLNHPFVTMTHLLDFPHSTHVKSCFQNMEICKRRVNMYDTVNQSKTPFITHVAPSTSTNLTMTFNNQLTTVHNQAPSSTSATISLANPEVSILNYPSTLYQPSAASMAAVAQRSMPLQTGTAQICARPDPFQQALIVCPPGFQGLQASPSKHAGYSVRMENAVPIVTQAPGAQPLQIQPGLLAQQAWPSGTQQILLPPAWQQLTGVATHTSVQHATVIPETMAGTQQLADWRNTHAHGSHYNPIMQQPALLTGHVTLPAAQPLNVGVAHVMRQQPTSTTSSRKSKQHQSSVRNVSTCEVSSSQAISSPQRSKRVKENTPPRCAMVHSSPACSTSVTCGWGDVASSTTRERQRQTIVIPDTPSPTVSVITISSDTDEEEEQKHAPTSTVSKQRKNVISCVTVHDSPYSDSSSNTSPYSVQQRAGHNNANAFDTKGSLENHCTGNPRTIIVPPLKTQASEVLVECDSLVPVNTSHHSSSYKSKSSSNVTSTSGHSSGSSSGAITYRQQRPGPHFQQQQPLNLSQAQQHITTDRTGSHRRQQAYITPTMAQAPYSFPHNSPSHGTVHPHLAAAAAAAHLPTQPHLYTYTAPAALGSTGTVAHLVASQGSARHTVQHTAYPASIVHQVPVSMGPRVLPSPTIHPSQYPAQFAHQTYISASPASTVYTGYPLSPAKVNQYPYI

## O=C1NC(=O)/C(=C\c2ccc3nccnc3c2)S1
JAK2 JH1 JH2 (human)
  residual activity: 97.4%
LYN (human)
  residual activity: 99.2% and 99.6%
CDC42BPB (human)
  residual activity: 91.3%
AURKC (human)
  residual activity: 95.6%
RPS6KB2 (human)
  residual activity: 94.7%
PRKG1 (human)
  residual activity: 113% and 98.3%
HIPK2 (human)
  residual activity: 101%
CAMK2G (human)
  residual activity: 101%
PLK1 (human)
  residual activity: 100%
JAK3 JH1 JH2 (human)
  residual activity: 97.2%
CSNK2A1 (human)
  residual activity: 3.08%
SGK2 (human)
  residual activity: 99.3%
MST4 (human)
  residual activity: 91%
MYLK (human)
  residual activity: 97.1%
GRK7 (human)
  residual activity: 99.8%
TBK1 (human)
  residual activity: 90.6%
PHKG2 (human)
  residual activity: 97.4%
DYRK2 (human)
  residual activity: 39.8%
TXK (human)
  residual activity: 96.8%
SRPK2 (human)
  residual activity: 98.2%
ABL1 (human)
  residual activity: 95.7%
TAOK1 (human)
  residual activity: 82.8%
DYRK1B (human)
  residual activity: 31.3%
CSF1R (human)
  residual activity: 110%
EPHA1 (human)
  residual activity: 91.8%
DAPK1 (human)
  residual activity: 105%
PRKD3 (human)
  residual activity: 94.7%
PRKCA (human)
  residual activity: 102%
RIPK2 (human)
  residual activity: 76.8%
CSNK1D (human)
  residual activity: 96.3%
NEK7 (human)
  residual activity: 105%
STK10 (human)
  residual activity: 90.5%
STK4 (human)
  residual activity: 95%
ROS1 (human)
  residual activity: 92.3%
FLT1 (human)
  residual activity: 87.5%
RAF1 (human)
  residual activity: 92.3%
ACVRL1 (human)
  residual activity: 107%
IRAK4 (human)
  residual activity: 99.9%
DDR2 (human)
  residual activity: 93.4%
STK17A (human)
  residual activity: 94.6%
MARK2 (human)
  residual activity: 93%
CDK9 CCNK (human)
  residual activity: 86%

## COc1cc2ncnc(N3CCN(C(=O)Nc4ccc(Oc5ccccc5)cc4)CC3)c2cc1OC
JAK2 JH1 JH2 (human)
  residual activity: 99.3%
LYN (human)
  residual activity: 102% and 97.8%
CDC42BPB (human)
  residual activity: 98.3%
AURKC (human)
  residual activity: 90.3%
RPS6KB2 (human)
  residual activity: 92.4%
PRKG1 (human)
  residual activity: 85.6% and 98.7%
HIPK2 (human)
  residual activity: 82.8%
CAMK2G (human)
  residual activity: 100%
PLK1 (human)
  residual activity: 96.6%
JAK3 JH1 JH2 (human)
  residual activity: 107%
CSNK2A1 (human)
  residual activity: 96.2%
SGK2 (human)
  residual activity: 96.7%
MST4 (human)
  residual activity: 95.4%
MYLK (human)
  residual activity: 101%
GRK7 (human)
  residual activity: 95.7%
TBK1 (human)
  residual activity: 96.3%
PHKG2 (human)
  residual activity: 128%
DYRK2 (human)
  residual activity: 95.4%
TXK (human)
  residual activity: 99.3%
SRPK2 (human)
  residual activity: 89.1%
ABL1 (human)
  residual activity: 97.4%
TAOK1 (human)
  residual activity: 81.6%
DYRK1B (human)
  residual activity: 93.5%
CSF1R (human)
  residual activity: 67.2%
EPHA1 (human)
  residual activity: 102%
DAPK1 (human)
  residual activity: 97.5%
PRKD3 (human)
  residual activity: 97.5%
PRKCA (human)
  residual activity: 98%
RIPK2 (human)
  residual activity: 93.7%
CSNK1D (human)
  residual activity: 103%
NEK7 (human)
  residual activity: 105%
STK10 (human)
  residual activity: 97.9%
STK4 (human)
  residual activity: 97.1%
ROS1 (human)
  residual activity: 89.7%
FLT1 (human)
  residual activity: 79%
RAF1 (human)
  residual activity: 88%
ACVRL1 (human)
  residual activity: 93%
IRAK4 (human)
  residual activity: 83.5%
DDR2 (human)
  residual activity: 95.1%
STK17A (human)
  residual activity: 85.5%
MARK2 (human)
  residual activity: 97.4%
CDK9 CCNK (human)
  residual activity: 83.6%

## CCN(CC)CCCCN1c2ccccc2Oc2ccc(Cl)cc21
JAK2 JH1 JH2 (human)
  residual activity: 104%
LYN (human)
  residual activity: 105% and 115%
CDC42BPB (human)
  residual activity: 99.7%
AURKC (human)
  residual activity: 99.3%
RPS6KB2 (human)
  residual activity: 107%
PRKG1 (human)
  residual activity: 91.3% and 98.8%
HIPK2 (human)
  residual activity: 118%
CAMK2G (human)
  residual activity: 104%
PLK1 (human)
  residual activity: 109%
JAK3 JH1 JH2 (human)
  residual activity: 106%
CSNK2A1 (human)
  residual activity: 96.2%
SGK2 (human)
  residual activity: 105%
MST4 (human)
  residual activity: 98%
MYLK (human)
  residual activity: 97%
GRK7 (human)
  residual activity: 96.2%
TBK1 (human)
  residual activity: 86.3%
PHKG2 (human)
  residual activity: 110%
DYRK2 (human)
  residual activity: 101%
TXK (human)
  residual activity: 101%
SRPK2 (human)
  residual activity: 109%
ABL1 (human)
  residual activity: 107%
TAOK1 (human)
  residual activity: 97.9%
DYRK1B (human)
  residual activity: 101%
CSF1R (human)
  residual activity: 97.8%
EPHA1 (human)
  residual activity: 90.5%
DAPK1 (human)
  residual activity: 76.6%
PRKD3 (human)
  residual activity: 97.1%
PRKCA (human)
  residual activity: 83%
RIPK2 (human)
  residual activity: 89.7%
CSNK1D (human)
  residual activity: 105%
NEK7 (human)
  residual activity: 89.7%
STK10 (human)
  residual activity: 97.1%
STK4 (human)
  residual activity: 98.9%
ROS1 (human)
  residual activity: 95.3%
FLT1 (human)
  residual activity: 94.3%
RAF1 (human)
  residual activity: 105%
ACVRL1 (human)
  residual activity: 102%
IRAK4 (human)
  residual activity: 194%
DDR2 (human)
  residual activity: 99.4%
STK17A (human)
  residual activity: 96.1%
MARK2 (human)
  residual activity: 86.1%
CDK9 CCNK (human)
  residual activity: 105%
